According to PubChem BioAssay AID2060626 (Molecular Pharmacology Branch, DTP, NCI, 2025):

Test system: 168753-222-R-J1-PDC complex spheroid viability
Assay: Anticancer human tumor 168753-222-R-J1-PDC patient-derived bladder carcinoma cell line growth inhibition [CLK]
Settings: for IC50: curve of first compound; for viability, T/C: stronger effect = lower value
In short: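 Patient-derived tumor cells grown as complex spheroids with HUVEC endothelial cells and mesenchymal stem cells, treated with drug combinations. Concentrations descend in half-log steps from near clinical Cmax, or from 10 microM if Cmax unknown.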
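Note: viability measured after seven days of drug exposure.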
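Throughout, for viability, T/C: luminescence signal used as surrogate for viable cell amount; 100% = DMSO vehicle control wells.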

Question: Which IC50 (second compound 0.0316 µM) does the source give for `C=CC(=O)Nc1cc(Nc2nccc(-c3cn(C)c4ccccc34)n2)c(OC)cc1N(C)CCN(C)C` + CNC(=O)c1ccc(Nc2nc(OC3CCCC3)c3c(-c4ccc5nc(C)oc5c4)c[nH]c3n2)c(OC)c1 here?
Answer: > 300 nM

Question: What about the IC50 (second compound 0.1 µM) of the same molecule?
Answer: > 300 nM

Question: And the IC50 (second compound 0.316 µM)?
Answer: > 300 nM

Question: What about the IC50 (second compound 1 µM) of the same molecule?
Answer: < 0.949 nM

Question: And the IC50 (second compound 3.16 µM)?
Answer: < 0.949 nM

Question: And the IC50 (second compound 10 µM)?
Answer: < 0.949 nM

Question: What about the viability, T/C (second compound 0.0316 µM, first compound 0.000949 µM) of the same molecule?
Answer: 122%

Question: What about the viability, T/C (second compound 0.0316 µM, first compound 0.003 µM) of the same molecule?
Answer: 96.3%

Question: And the viability, T/C (second compound 0.0316 µM, first compound 0.00949 µM)?
Answer: 102%

Question: What about the viability, T/C (second compound 0.0316 µM, first compound 0.03 µM) of the same molecule?
Answer: 102%

Question: What about the viability, T/C (second compound 0.0316 µM, first compound 0.0949 µM) of the same molecule?
Answer: 107%

Question: What about the viability, T/C (second compound 0.0316 µM, first compound 0.3 µM) of the same molecule?
Answer: 103%

Question: And the viability, T/C (second compound 0.1 µM, first compound 0.000949 µM)?
Answer: 91.1%

Question: And the viability, T/C (second compound 0.1 µM, first compound 0.003 µM)?
Answer: 87%

Question: And the viability, T/C (second compound 0.1 µM, first compound 0.00949 µM)?
Answer: 86.7%

Question: And the viability, T/C (second compound 0.1 µM, first compound 0.03 µM)?
Answer: 76.8%

Question: And the viability, T/C (second compound 0.1 µM, first compound 0.0949 µM)?
Answer: 91.7%

Question: And the viability, T/C (second compound 0.1 µM, first compound 0.3 µM)?
Answer: 90.2%

Question: And the viability, T/C (second compound 0.316 µM, first compound 0.000949 µM)?
Answer: 73.5%

Question: What about the viability, T/C (second compound 0.316 µM, first compound 0.003 µM) of the same molecule?
Answer: 69.6%

Question: What about the viability, T/C (second compound 0.316 µM, first compound 0.00949 µM) of the same molecule?
Answer: 69.3%

Question: And the viability, T/C (second compound 0.316 µM, first compound 0.03 µM)?
Answer: 63.8%

Question: And the viability, T/C (second compound 0.316 µM, first compound 0.0949 µM)?
Answer: 71.8%

Question: And the viability, T/C (second compound 0.316 µM, first compound 0.3 µM)?
Answer: 62.5%

Question: What about the viability, T/C (second compound 1 µM, first compound 0.000949 µM) of the same molecule?
Answer: 37.1%

Question: What about the viability, T/C (second compound 1 µM, first compound 0.003 µM) of the same molecule?
Answer: 39.1%

Question: And the viability, T/C (second compound 1 µM, first compound 0.00949 µM)?
Answer: 38.5%

Question: And the viability, T/C (second compound 1 µM, first compound 0.03 µM)?
Answer: 40.8%

Question: And the viability, T/C (second compound 1 µM, first compound 0.0949 µM)?
Answer: 30.8%

Question: What about the viability, T/C (second compound 1 µM, first compound 0.3 µM) of the same molecule?
Answer: 29%

Question: And the viability, T/C (second compound 3.16 µM, first compound 0.000949 µM)?
Answer: 18.2%

Question: What about the viability, T/C (second compound 3.16 µM, first compound 0.003 µM) of the same molecule?
Answer: 19.3%

Question: What about the viability, T/C (second compound 3.16 µM, first compound 0.00949 µM) of the same molecule?
Answer: 19.5%

Question: What about the viability, T/C (second compound 3.16 µM, first compound 0.03 µM) of the same molecule?
Answer: 22.8%

Question: And the viability, T/C (second compound 3.16 µM, first compound 0.0949 µM)?
Answer: 19.6%

Question: And the viability, T/C (second compound 3.16 µM, first compound 0.3 µM)?
Answer: 16.9%

Question: And the viability, T/C (second compound 10 µM, first compound 0.000949 µM)?
Answer: 16.3%

Question: What about the viability, T/C (second compound 10 µM, first compound 0.003 µM) of the same molecule?
Answer: 19.8%

Question: And the viability, T/C (second compound 10 µM, first compound 0.00949 µM)?
Answer: 18.5%

Question: What about the viability, T/C (second compound 10 µM, first compound 0.03 µM) of the same molecule?
Answer: 15.6%

Question: What about the viability, T/C (second compound 10 µM, first compound 0.0949 µM) of the same molecule?
Answer: 19.1%

Question: What about the viability, T/C (second compound 10 µM, first compound 0.3 µM) of the same molecule?
Answer: 15.6%

Question: `Nc1ccn(C2OC(CO)C(O)C2(F)F)c(=O)n1` (centres undefined) + CN1CCN(c2cc(C(=O)Nc3cc4cc(-c5cnn(C)c5)ccc4cn3)ccn2)CC1 was tested. Which IC50 (second compound 0.0316 µM) did it give?
Answer: 51.8 nM

Question: What about the IC50 (second compound 0.1 µM) of the same molecule?
Answer: 46 nM

Question: What about the IC50 (second compound 0.316 µM) of the same molecule?
Answer: < 31.6 nM

Question: And the IC50 (second compound 1 µM)?
Answer: < 31.6 nM

Question: And the IC50 (second compound 3.16 µM)?
Answer: < 31.6 nM

Question: And the IC50 (second compound 10 µM)?
Answer: < 31.6 nM

Question: What about the viability, T/C (second compound 0.0316 µM, first compound 0.0316 µM) of the same molecule?
Answer: 65.4%

Question: And the viability, T/C (second compound 0.0316 µM, first compound 0.1 µM)?
Answer: 28.6%

Question: What about the viability, T/C (second compound 0.0316 µM, first compound 0.316 µM) of the same molecule?
Answer: 21.3%

Question: And the viability, T/C (second compound 0.0316 µM, first compound 1 µM)?
Answer: 19%

Question: And the viability, T/C (second compound 0.0316 µM, first compound 3.16 µM)?
Answer: 15.6%

Question: And the viability, T/C (second compound 0.0316 µM, first compound 10 µM)?
Answer: 16%

Question: And the viability, T/C (second compound 0.1 µM, first compound 0.0316 µM)?
Answer: 63.6%

Question: And the viability, T/C (second compound 0.1 µM, first compound 0.1 µM)?
Answer: 21.3%

Question: And the viability, T/C (second compound 0.1 µM, first compound 0.316 µM)?
Answer: 15.4%

Question: And the viability, T/C (second compound 0.1 µM, first compound 1 µM)?
Answer: 11.6%

Question: And the viability, T/C (second compound 0.1 µM, first compound 3.16 µM)?
Answer: 10.2%

Question: And the viability, T/C (second compound 0.1 µM, first compound 10 µM)?
Answer: 11.8%

Question: And the viability, T/C (second compound 0.316 µM, first compound 0.0316 µM)?
Answer: 9.99%

Question: And the viability, T/C (second compound 0.316 µM, first compound 0.1 µM)?
Answer: 10.4%

Question: What about the viability, T/C (second compound 0.316 µM, first compound 0.316 µM) of the same molecule?
Answer: 9.64%

Question: And the viability, T/C (second compound 0.316 µM, first compound 1 µM)?
Answer: 9.63%

Question: What about the viability, T/C (second compound 0.316 µM, first compound 3.16 µM) of the same molecule?
Answer: 10.7%

Question: And the viability, T/C (second compound 0.316 µM, first compound 10 µM)?
Answer: 12%

Question: What about the viability, T/C (second compound 1 µM, first compound 0.0316 µM) of the same molecule?
Answer: 0.28%

Question: What about the viability, T/C (second compound 1 µM, first compound 0.1 µM) of the same molecule?
Answer: 0.18%

Question: And the viability, T/C (second compound 1 µM, first compound 0.316 µM)?
Answer: 0.16%

Question: And the viability, T/C (second compound 1 µM, first compound 1 µM)?
Answer: 0.12%

Question: And the viability, T/C (second compound 1 µM, first compound 3.16 µM)?
Answer: 0.57%

Question: What about the viability, T/C (second compound 1 µM, first compound 10 µM) of the same molecule?
Answer: 0.21%

Question: And the viability, T/C (second compound 3.16 µM, first compound 0.0316 µM)?
Answer: 0.1%

Question: And the viability, T/C (second compound 3.16 µM, first compound 0.1 µM)?
Answer: 0.12%

Question: And the viability, T/C (second compound 3.16 µM, first compound 0.316 µM)?
Answer: 0.43%

Question: What about the viability, T/C (second compound 3.16 µM, first compound 1 µM) of the same molecule?
Answer: 0.07%

Question: What about the viability, T/C (second compound 3.16 µM, first compound 3.16 µM) of the same molecule?
Answer: 0.15%

Question: What about the viability, T/C (second compound 3.16 µM, first compound 10 µM) of the same molecule?
Answer: 0.1%

Question: What about the viability, T/C (second compound 10 µM, first compound 0.0316 µM) of the same molecule?
Answer: 0.14%

Question: And the viability, T/C (second compound 10 µM, first compound 0.1 µM)?
Answer: 0.14%

Question: And the viability, T/C (second compound 10 µM, first compound 0.316 µM)?
Answer: 1.05%

Question: What about the viability, T/C (second compound 10 µM, first compound 1 µM) of the same molecule?
Answer: 1.61%

Question: What about the viability, T/C (second compound 10 µM, first compound 3.16 µM) of the same molecule?
Answer: 0.42%

Question: What about the viability, T/C (second compound 10 µM, first compound 10 µM) of the same molecule?
Answer: 0.9%
